Patent publication US7973047B2, “Beta-Secretase modulators and methods of use” (Amgen Inc., priority 2010, dated 2011)

Test system: Aβ40 in conditioned medium of cells stably expressing Amyloid Precursor Protein (APP)
Assay: BACE cell-based assay: Aβ40 in conditioned medium by sandwich ELISA
Settings: cell based assay data of Table 4; unit inferred; read-out: Cell Assay
Experimental: The cell-based assay measures inhibition or reduction of Aβ40 in conditioned medium of test compound treated cells expressing amyloid precursor protein.
Cells stably expressing Amyloid Precursor Protein (APP) were plated at a density of 40K cells/well in 96 well plates (Costar). The cells were cultivated for 24 hours at 37° C. and 5% CO2 in DMEM supplemented with 10% FBS. The test compounds were then added to cells in 10-point dose response concentrations with the starting concentration being either 100 μM or 10 μM. The compounds were diluted from stock solutions in DMSO and the final DMSO concentration of the test compounds on cells was 0.1%. After 24 h of incubation with the test compounds the supernatant conditioned media was collected and the Aβ40 levels were determined using a sandwich ELISA. The ICso of the compound was calculated from the percent of control or percent inhibition of Aβ40 as a function of the concentration of the test compound.
The sandwich ELISA to detect Aβ40 was performed in 96 well microtiter plates, which were pre-treated with goat anti-rabbit IgG (Pierce). The capture and detecting antibody pair that were used to detect Aβ40 from cell supernatants were affinity purified pAb40 (Biosource) and biotinylated 6E10 (Signet Labs Inc.), respectively. The optimal concentration for the pAb40 antibody was 3 μg/ml in Superblock/TBS (Pierce) that was supplemented with 0.05% Tween 20 (Sigma).
Cellular supernatants were incubated with the capture antibody for 3 h at 4° C., followed by 3 wash steps in TBS-tween (0.05%). The detecting antibody incubation was for 2 h at 4° C., again followed by the wash steps as described previously. The final readout of the ELISA is Time-Resolved Fluorescence (counts per minute) using Delfia reagents Streptavidin-Europium and Enhancement solutions (Perkin Elmer) and the Victor 2 multilabel counter (Perkin Elmer).

Q: Which IC50 does the source give for `CC(=O)N[C@@H](Cc1cc(F)cc(Cl)c1)[C@H](O)CN[C@H]1CC2(CCC2)Oc2ncc(CC(C)(C)C)cc21` [compound 567] here?
A: 3.27 nM

Q: `CC(=O)N[C@@H](Cc1ccc(F)cc1)[C@H](O)CN[C@H]1CC2(CCC2)Oc2ncc(CC(C)(C)C)cc21` [compound 568] was tested. Which IC50 did it give?
A: 8.13 nM

Q: How did the IC50 turn out when `CC(=O)N[C@@H](Cc1cccc(F)c1)[C@H](O)CN[C@H]1CC2(CCC2)Oc2cnc(CC(C)(C)C)cc21` [compound 569] was run?
A: 5.22 nM

Q: With `CC(=O)N[C@@H](Cc1ccc(F)cc1)[C@H](O)CN[C@H]1CC2(CCC2)Oc2cnc(CC(C)(C)C)cc21` [compound 570] as the compound, how does the IC50 read?
A: 22.1 nM

Q: Which IC50 does the source give for `CC(=O)N[C@@H](Cc1ccc(F)cc1)[C@H](O)CN[C@H]1CC2(CCC2)Oc2ncc(CC(C)(C)F)cc21` [compound 571] here?
A: 80.9 nM

Q: Which IC50 does the source give for `CC(=O)N[C@@H](Cc1ccc(F)cc1)[C@H](O)CN[C@H]1CC(C)(C)Oc2ncc(CC(C)(C)C)cc21` [compound 572] here?
A: 13.8 nM

Q: How did the IC50 turn out when `CC(=O)N[C@@H](Cc1cc(F)cc(F)c1)[C@H](O)CN[C@H]1CC(C)(C)Oc2ncc(CC(C)(C)C)cc21` [compound 573] was run?
A: 3.12 nM

Q: With `CC(=O)N[C@@H](Cc1ccc(F)cc1)[C@@H](O)CN[C@H]1CC2(CCC2)Oc2ncc(CC(C)(C)F)cc21` [compound 574] as the compound, how does the IC50 read?
A: 111 nM

Q: How did the IC50 turn out when `CC(=O)N[C@@H](Cc1ccc(F)c(C)c1)[C@H](O)CN[C@H]1CC2(CCC2)Oc2ncc(CC(C)(C)C)cc21` [compound 575] was run?
A: 4.64 nM

Q: For `CC(=O)N[C@@H](Cc1ccc(C)c(F)c1)[C@H](O)CN[C@H]1CC2(CCC2)Oc2ncc(CC(C)(C)C)cc21` [compound 576], which IC50 is on record?
A: 2.15 nM

Q: `COC(=O)N[C@@H](Cc1ccc(F)cc1)[C@H](O)CN[C@H]1CC2(CCC2)Oc2ncc(CC(C)(C)C)cc21` [compound 577] was tested. Which IC50 did it give?
A: 60 nM

Q: Which IC50 does the source give for `CC(=O)N[C@@H](Cc1ccc(F)c(C)c1)[C@H](O)CN[C@H]1CC2(CCC2)Oc2ncc(CC(C)(C)F)cc21` [compound 578] here?
A: 28.5 nM

Q: `COc1cccc(C[C@H](NC(C)=O)[C@H](O)CN[C@H]2CC3(CCC3)Oc3ncc(CC(C)(C)C)cc32)c1` [compound 579] was tested. Which IC50 did it give?
A: 4.61 nM

Q: Which IC50 does the source give for `CC(=O)N[C@@H](Cc1ccc(Cl)cc1)[C@H](O)CN[C@H]1CC2(CC2)Oc2ncc(CC(C)(C)C)cc21` [compound 580] here?
A: 120 nM

Q: With `COCC(C)(C)Cc1cnc2c(c1)[C@@H](NC[C@@H](O)[C@H](Cc1ccc(F)cc1)NC(C)=O)CC1(CCC1)O2` [compound 581] as the compound, how does the IC50 read?
A: 137 nM

Q: How did the IC50 turn out when `CC(=O)N[C@@H](Cc1ccccc1)[C@H](O)CN[C@H]1CC2(CCC2)Oc2c1cc(CC(C)(C)C)nc2N(C)C` [compound 582] was run?
A: 31.8 nM

Q: For `CC(=O)N[C@@H](Cc1ccc(F)cc1)[C@H](O)CN[C@H]1CC2(CCC2)Oc2c1cc(CC(C)(C)C)nc2Cl` [compound 583], which IC50 is on record?
A: 112 nM

Q: For `CCNc1nc(CC(C)(C)C)cc2c1OC1(CCC1)C[C@@H]2NC[C@@H](O)[C@H](Cc1ccc(F)cc1)NC(C)=O` [compound 584], which IC50 is on record?
A: 5.29 nM

Q: Which IC50 does the source give for `CC(=O)N[C@@H](Cc1ccc(F)cc1)[C@H](O)CN[C@H]1CC2(CCC2)Oc2c1cc(CC(C)(C)C)nc2NC(C)C` [compound 585] here?
A: 22.3 nM

Q: For `CC(=O)N[C@@H](Cc1ccc(F)cc1)[C@H](O)CN[C@H]1CC2(CCC2)Oc2c1cc(CC(C)(C)C)nc2NC1CC1` [compound 586], which IC50 is on record?
A: 14 nM

Q: `CC(=O)N[C@@H](Cc1ccc(F)cc1)[C@H](O)CN[C@H]1CC2(CCC2)Oc2c1cc(CC(C)(C)C)nc2NC1CCOCC1` [compound 587] was tested. Which IC50 did it give?
A: 8.48 nM

Q: With `CC(=O)N[C@@H](Cc1ccc(F)cc1)[C@H](O)CN[C@H]1CC2(CCC2)Oc2c1cc(CC(C)(C)C)nc2N(C)C` [compound 588] as the compound, how does the IC50 read?
A: 52.3 nM

Q: Which IC50 does the source give for `CC(=O)N[C@@H](Cc1ccc(F)cc1)[C@H](O)CN[C@H]1CC2(CCC2)Oc2c1cc(CC(C)(C)C)nc2NC(C)(C)C` [compound 589] here?
A: 615 nM

Q: For `CNc1nc(CC(C)(C)C)cc2c1OC1(CCC1)C[C@@H]2NC[C@@H](O)[C@H](Cc1cccc(F)c1)NC(C)=O` [compound 590], which IC50 is on record?
A: 1.41 nM

Q: How did the IC50 turn out when `CCNc1nc(CC(C)(C)C)cc2c1OC1(CCC1)C[C@@H]2NC[C@@H](O)[C@H](Cc1cccc(F)c1)NC(C)=O` [compound 591] was run?
A: 2.98 nM

Q: For `CC(=O)N[C@@H](Cc1cccc(F)c1)[C@H](O)CN[C@H]1CC2(CCC2)Oc2c1cc(CC(C)(C)C)nc2NC1CCOCC1` [compound 592], which IC50 is on record?
A: 3.24 nM

Q: With `CC(=O)N[C@@H](Cc1cccc(F)c1)[C@H](O)CN[C@H]1CC2(CCC2)Oc2c1cc(CC(C)(C)C)nc2N(C)C` [compound 593] as the compound, how does the IC50 read?
A: 23.6 nM

Q: With `CC(=O)N[C@@H](Cc1cccc(F)c1)[C@H](O)CN[C@H]1CC2(CCC2)Oc2c1cc(CC(C)(C)C)[nH]c2=O` [compound 594] as the compound, how does the IC50 read?
A: 23.4 nM

Q: `CC(=O)N[C@@H](Cc1cc(F)cc(F)c1)[C@H](O)CN[C@H]1CC2(CCC2)Oc2c1cc(CC(C)(C)C)nc2N(C)C` [compound 598] was tested. Which IC50 did it give?
A: 26.8 nM

Q: With `CC(=O)N[C@@H](Cc1ccc(N(C)C)cc1)[C@H](O)CN[C@H]1CC2(CCC2)Oc2c1cc(CC(C)(C)C)nc2N(C)C` [compound 599] as the compound, how does the IC50 read?
A: 167 nM

Q: How did the IC50 turn out when `CC(=O)N[C@@H](Cc1ccc(Cl)cc1)[C@H](O)CN[C@H]1CC2(CCC2)Oc2c1cc(CC(C)(C)C)nc2N(C)C` [compound 600] was run?
A: 634 nM

Q: `CC(=O)N[C@@H](Cc1cccc(F)c1F)[C@H](O)CN[C@H]1CC2(CCC2)Oc2c1cc(CC(C)(C)C)nc2N(C)C` [compound 601] was tested. Which IC50 did it give?
A: 227 nM

Q: `CC(=O)N[C@@H](Cc1cccc(F)c1)[C@H](O)CN[C@H]1CC2(CCC2)Oc2c1cc(CC(C)(C)C)nc2NC1CC1` [compound 602] was tested. Which IC50 did it give?
A: 2.89 nM

Q: For `CC(=O)N[C@@H](Cc1cccc(F)c1)[C@H](O)CN[C@H]1CC2(CCC2)Oc2c1cc(CC(C)(C)C)nc2NCCNC(=O)OC(C)(C)C` [compound 603], which IC50 is on record?
A: 12.9 nM

Q: For `COC1CN(c2nc(CC(C)(C)C)cc3c2OC2(CCC2)C[C@@H]3NC[C@@H](O)[C@H](Cc2cccc(F)c2)NC(C)=O)C1` [compound 604], which IC50 is on record?
A: 5.79 nM

Q: Which IC50 does the source give for `CC(=O)N[C@@H](Cc1cccc(F)c1)[C@H](O)CN[C@H]1CC2(CCC2)Oc2c1cc(CC(C)(C)C)nc2N` [compound 605] here?
A: 1.56 nM

Q: For `CC(=O)N[C@@H](Cc1cccc(F)c1)[C@H](O)CN[C@H]1CC2(CCC2)Oc2c1cc(CC(C)(C)C)nc2NCCN` [compound 606], which IC50 is on record?
A: 4.43 nM

Q: With `CC(=O)N[C@@H](Cc1ccc(F)cc1)[C@H](O)CN[C@@H]1CC2(CCC2)Oc2c1cc(CC(C)(C)C)nc2OC(C)C` [compound 607] as the compound, how does the IC50 read?
A: 80.3 nM

Q: `CC(=O)N[C@@H](Cc1ccc(F)cc1)[C@H](O)CN[C@H]1CC2(CCC2)Oc2c1cc(CC(C)(C)C)nc2OC(C)C` [compound 608, N-((1S,2R)-3-(((4′S)-6′-(2,2-dimethylpropyl)-8′-((1-methylethyl)oxy)-3′,4′-dihydrospiro[cyclobutane-1,2′-pyrano[2,3-c]pyridin]-4′-yl)amino)-1-((4-fluorophenyl)methyl)-2-hydroxypropyl)acetamide] was tested. Which IC50 did it give?
A: 64.3 nM

Q: How did the IC50 turn out when `CC(=O)N[C@@H](Cc1cccc(F)c1)[C@H](O)CN[C@@H]1CC2(CCC2)Oc2c1cc(CC(C)(C)C)nc2OC(C)C` [compound 609] was run?
A: 66.7 nM

Q: With `CC(=O)N[C@@H](Cc1cc(F)cc(F)c1)[C@H](O)CN[C@@H]1CC2(CCC2)Oc2c1cc(CC(C)(C)C)nc2OC(C)C` [compound 611] as the compound, how does the IC50 read?
A: 161 nM

Q: With `CC(=O)N[C@@H](Cc1cc(F)cc(F)c1)[C@H](O)CN[C@H]1CC2(CCC2)Oc2c1cc(CC(C)(C)C)nc2OC(C)C` [compound 612, N-((1S,2R)-1-((3,5-difluorophenyl)methyl)-3-(((4′S)-6′-(2,2-dimethylpropyl)-8′-((1-methylethyl)oxy)-3′,4′-dihydrospiro[cyclobutane-1,2′-pyrano[2,3-c]pyridin]-4′-yl)amino)-2-hydroxypropyl)acetamide] as the compound, how does the IC50 read?
A: 24.2 nM

Q: `COc1nc(CC(C)(C)C)cc2c1OC1(CCC1)C[C@@H]2NC[C@@H](O)[C@H](Cc1ccc(F)cc1)NC(C)=O` [compound 613] was tested. Which IC50 did it give?
A: 103 nM

Q: Which IC50 does the source give for `COC1CN(c2nc(CC(C)(C)C)cc3c2OC2(CCC2)C[C@@H]3NC[C@@H](O)[C@H](Cc2ccc(F)cc2)NC(C)=O)C1` [compound 614] here?
A: 59 nM

Q: With `CC(=O)N[C@@H](Cc1ccc(F)cc1)[C@H](O)CN[C@H]1C[C@]2(C[C@H](C)C2)Oc2ncc(CC(C)C)cc21` [compound 615, N-((1S,2R)-1-((4-fluorophenyl)methyl)-2-hydroxy-3-(((1s,3R,4′S)-3-methyl-6′-(2-methylpropyl)-3′,4′-dihydrospiro[cyclobutane-1,2′-pyrano[2,3-b]pyridin]-4′-yl)amino)propyl)acetamide] as the compound, how does the IC50 read?
A: 24.8 nM

Q: Which IC50 does the source give for `CC(=O)N[C@@H](Cc1ccc(F)cc1)[C@H](O)CN[C@H]1C[C@]2(C[C@@H](C)C2)Oc2ncc(CC(C)C)cc21` [compound 616, N-((1S,2R)-1-((4-fluorophenyl)methyl)-2-hydroxy-3-(((1r,3S,4′S)-3-methyl-6′-(2-methylpropyl)-3′,4′-dihydrospiro[cyclobutane-1,2′-pyrano[2,3-b]pyridin]-4′-yl)amino)propyl)acetamide] here?
A: 62.7 nM
